From patent US20260294915A1, “COMBINATION THERAPY COMPRISING A MAT2A INHIBITOR AND A TOPOISOMERASE INHIBITOR, A SPLICING INHIBITOR SULFONAMIDE, OR A KIF18 INHIBITOR” (IDEAYA BIOSCIENCES, INC., priority 2023, published 2026)
Like-named read-outs stand apart in the source and are kept apart here.

Tests used:
Assay in all cases: 10-day proliferation screen with Compound A pre-treatment (Example 3)
Format in all cases: cell-based
SKGT4 = settings: read-out: Growth IC50
[1] = tested on: Panc 03.27 MTAP Knock-out Clone 31; settings: Homo sapiens, read-out: Growth IC50
Protocol: (§1) A 10-day proliferation screen was performed in 15 pancreatic, non-small cell lung, and bladder cancer cell lines: 10 MTAP null and 5 MTAP wild-type. Optimal cell seeding for all cell lines was determined by assessing the growth over a range of seeding densities in a 384-well format to identify conditions that permitted proliferation for 10 days. […] Cells were incubated at 37° C. with 5% CO2 for 4 days to allow for target engagement of the pre-treatment compound. Maintaining the pre-treatment condition, cells were also treated with an 11-point, three-fold titration series of compounds from a chemically diverse library of 424 compounds. The combination compound concentrations ranged from 0.2 nM to 14,679 nM. A plate of cells was harvested at the time of combination compound addition to quantify the number of cells at the start of the combination (T0). For cell quantification, the harvested cells were lysed with CellTiter-Glo (CTG) (Promega) reagent according to the manufacturer's protocol and the chemiluminescent signal was detected on a Synergy Neo plate reader (ThermoFisher, serial #140715A). CTG estimates cell number through detection of cellular ATP levels. Cells were incubated with the drug combinations at 37° C. with 5% CO2 for an additional 6 days for a total of a 10-day assay including the pre-treatment. Cells were then lysed with CTG and the chemiluminescent signal was measured. CTG values obtained after the 10-day treatment were background subtracted, expressed as a percent of the T0 value, and plotted against compound concentration. Data were fit with a four-parameter equation to generate concentration response curves. Growth IC50 values and maximal growth inhibition were compared between the DMSO and the Compound A pre-treated cells for each combination titration. Combination hit calling was based on the observation of >2-fold shift in growth IC50 and/or greater than 20% […] in growth inhibition.

Panc 03.27 Parent = settings: Homo sapiens, read-out: Growth IC50
Protocol: as §1

[2] = PANC-03-27, Cmpd A pre-treatment 15 nM

IC50 (SKGT4; SKGT4, Cmpd A pre-treatment 150 nM): 0.516 µM | IC50 (SKGT4; SKGT4, DMSO pre-treatment): 1.06 µM | IC50 [1, 2]: 0.873 µM | IC50 ([1]; PANC-03-27, DMSO pre-treatment): 2.17 µM | IC50 (Panc 03.27 Parent; [2]): 0.618 µM | IC50 (Panc 03.27 Parent; PANC-03-27, DMSO pre-treatment): 0.814 µM
Structure (SMILES): NS(=O)(=O)c1ccc(S(=O)(=O)Nc2cccc3c(Cl)c[nH]c23)cc1 [Indisulam, N-(3-chloro-1H-indol-7-yl)benzene-1,4-disulfonamide]
